{
  "source": "patent US20260191191A1",
  "about": "“METHOD FOR INACTIVATING ENVELOPED VIRUSES” (Merck Patent GmbH, priority 2022, published 2026)",
  "key": {"[1]": {"system": "Bovine viral diarrheal virus (BVDV)", "assay_type": "cell-based"}, "[2]": {"system": "Xenotropic murine leukemia virus (XMuLV)", "assay_type": "cell-based"}, "Pseudorabies virus (PRV)": {"system": "Pseudorabies virus (PRV)", "assay_type": "cell-based", "conditions": "CHO clarified harvest, 15° C., within 5 min"}, "[3]": {"experiment": "Critical micelle concentration (CMC) determination by static surface tension"}},
  "note": "“Also recorded” adds a separate entry of the source. Where two headings read alike, the source gives them in different places.",
  "data": [
    {"substance": "C11-C15 secondary alcohol ethoxylate", "values": [
      {"measurement": "BVDV inactivation LRV", "setting": "[1]", "value": "≥ 4.0"},
      {"measurement": "hemolysis compared with Triton X-100", "setting": "Fresh human whole blood", "value": "comparable to Triton™ X-100"},
      {"measurement": "SAE inactivation efficacy higher than Triton X-100 by", "setting": "[2]", "value": "~ 1.0 log"},
      {"measurement": "XMuLV inactivation efficacy compared with Triton X-100", "setting": "[2]", "value": "slightly higher efficacy than Triton™ X-100; also recorded: comparable inactivation with Triton™ X-100; also recorded: lower than that achieved with 1.0% Triton™ X-100, until a longer incubation time has elapsed; also recorded: comparable to that achieved with Triton™ X-100; also recorded: the same virus inactivation efficacy as Triton™ X-100"},
      {"measurement": "XMuLV inactivation efficiency compared with Triton X-100", "setting": "[2]", "value": "slightly higher than that achieved with Triton™ X-100 detergent"},
      {"measurement": "time in which most XMuLV inactivation occurred", "setting": "[2]", "value": "≤ 5", "unit": "min"},
      {"measurement": "PRV inactivation LRV", "setting": "Pseudorabies virus (PRV); 0.5% detergent", "value": "~ 6.5"},
      {"measurement": "PRV inactivation LRV", "setting": "Pseudorabies virus (PRV); 1.0% detergent", "value": "≥ 5.0"},
      {"measurement": "critical micelle concentration (CMC)", "setting": "[3]", "value": 49, "unit": "mg/L"}
    ]}
  ]
}
